Assay results published in patent US6342503B1, “1N-alkyl-n-arylpyrimidinamines and derivatives thereof” (DuPont Pharmaceuticals Company, priority 1993, dated 2002).

biological target: T1, CRF receptor (Rattus norvegicus, UniProt P35353); assay: In vitro CRF receptor binding assay (competition with [125I] ovine CRF, rat cortex membranes); settings: competition with [125I] ovine CRF, 2 h at 22° C.; Ki classes; read-out: Inhibition Ki
T1 construct: 100 μl of membrane suspension as prepared above to give a total reaction volume of 300 μl; from tissue; host or cells: rat cerebral cortex membrane homogenate
T1 sequence (P35353 24-415): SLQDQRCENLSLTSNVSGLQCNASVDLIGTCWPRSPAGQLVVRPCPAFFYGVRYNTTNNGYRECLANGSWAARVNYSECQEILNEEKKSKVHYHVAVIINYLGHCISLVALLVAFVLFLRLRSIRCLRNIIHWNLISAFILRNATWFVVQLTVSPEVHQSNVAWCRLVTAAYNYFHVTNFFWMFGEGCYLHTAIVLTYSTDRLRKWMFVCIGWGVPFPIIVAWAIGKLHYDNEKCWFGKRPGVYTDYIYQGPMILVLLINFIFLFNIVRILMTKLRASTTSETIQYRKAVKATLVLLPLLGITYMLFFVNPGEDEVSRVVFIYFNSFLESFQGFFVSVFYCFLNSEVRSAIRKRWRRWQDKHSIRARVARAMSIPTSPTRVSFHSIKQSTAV
Description: In vitro Receptor Binding Assay
Tissue Preparation: Male Sprague Dawley rats (180-200 g) were sacrificed by decapitation and the cortex was dissected on ice, frozen whole in liquid nitrogen and stored at −70° C. until use. On the day of assay, frozen tissue was weighed and homogenized in 20 volumes of ice cold buffer containing 50 mM Tris, 10 mM MgCl2, 2 mM EGTA, pH 7.0 at 22° C. using a Polytron (Brinkmann Instruments, Westbury, N.Y.; setting 6) for 20 s. The homogenate was centrifuged at 48,000× g for 10 min at 4° C. The supernatant was discarded, and the pellet was re-homogenized in the same volume of buffer and centrifuged at 48,000× g for 10 min at 4° C. The resulting pellet was resuspended in the above buffer to a final concentration of 20-40 mg original wet weight/mL and used in the assays described below.
CRF Receptor Binding: Receptor binding assays were carried out essentially as described by E. B. De Souza, J. Neurosci. […]
All assays were carried out at equilibrium for 2 h at 22° C. as described by E. B. De Souza, J. Neurosci. […] The reaction was terminated by centrifugation of the tubes in a Beckman microfuge for 5 min at 12,000× g. Aliquots of the supernatant were collected to determine the “free” radioligand concentration. The remaining supernatant was aspirated and the pellets washed gently with ice-cold PBS plus 0.01% Triton X-100; centrifuged again and monitored for bound radioactivity as described above. […] This program has the distinct advantage of fitting the raw experimental data on an untransformed coordinate system where errors are most likely to be normally distributed and uncorrelated with the independent variable. […] The parameters for the affinity constants (KD) and receptor densities (Bmax) are also provided along with statistics on the general “fit” of the estimated parameters to the raw data.
Competition Curve Analysis
The resulting pellets were surface washed twice by centrifugation with 1 mL of ice-cold phosphate buffered saline and 0.01% Triton X-100; the supernatants discarded and the pellets monitored for radioactivity at approximately 80% efficiency. The level of non-specific binding was defined in the presence of […] unlabeled rat/humanCRF (r/hCRF). Data from competition curves were analyzed by the program LIGAND. […] Routinely, the data were analyzed using a one- and two-site model comparing the “goodness of fit” between the models in order to accurately determine the Ki. Statistical analyses provided by LIGAND allowed the determination of whether a single-site or multiple-site model should be used.
In Table 17; the Ki values were determined using the assay conditions described above.

Row | Compound | Ki
1 | CCN(c1nc(C)cc(CN2CCOCC2)n1)c1ccc(C(C)C)cc1Br [compound 59, N-(2-bromo-4-(1-methylethyl)phenyl)-N-ethyl-6-methyl-4-(4-morpholinylmethyl)-2-pyrmidinamine] | < 500 nM
2 | CCN(c1nc(C)cc(C)n1)c1ccc(C(C)=NOC)cc1SC [compound 178, N-(2-methylthio-4-methoxyiminoethylphenyl)-N-ethyl-4,6-dimethyl-2-pyrimidinamine] | < 500 nM
3 | CCN(c1nc(C)cc(C)n1)c1ccc(C(C)=NOC)cc1S(C)(=O)=O [compound 179, N-(2-methylsulfonyl-4-methoxyiminoethylphenyl)-N-ethyl-4,6-dimethyl-2-pyrimidinamine] | 2000 to 10000 nM
4 | CCN(c1nc(C)cc(C(=O)N2CCN(C)CC2)n1)c1ccc(C(C)C)cc1Br [compound 63, N-(2-bromo-4-(1-methylethyl)phenyl)-N-ethyl-4-methyl-6-(4-methylpiperazinylcarbonyl)-2-pyrimidinamine] | 2000 to 10000 nM
5 | N-ethyl-N-(2-bromo-4-(2-methoxyethyl)phenyl)4-morpholino-6-methyl-2-pyrimidinamine [compound 29] | < 500 nM
6 | CCN(c1nc(C)cc(C(=O)OC)n1)c1ccc(C(C)C)cc1Br [compound 61, Methyl 2-((2-bromo-4-(1-methylethyl)phenyl)ethylamino)-6-methyl-4-pyrimidinecarboxylate] | < 500 nM
7 | CCN(c1nc(C)cc(N2CCOCC2)n1)c1ccc(C(C)C)cc1Br [compound 16, N-(2-bromo-4-(1-methylethyl)phenyl)-N-ethyl-4-morpholino-6-methyl-2-pymidinamine] | < 500 nM

same assay, conditions: read-out: Inhibition Ki

Row | Compound | Ki
8 | CCN(c1nc(C)nc(N2CCOCC2)n1)c1ccc(C(C)C)cc1Br [compound 134, N-[2-bromo-4-(1-methylethyl)phenyl]-N-ethyl-4-methyl-6-(4-morpholinyl)-1,3,5-triazin-2-amine] | < 500 nM
9 | Cc1cc(-c2ccccc2)c2c(C#N)cn(-c3ccc(C(C)C)cc3Br)c2n1 [Example 256] | < 500 nM
10 | CCN(c1nc(C)cc(COc2cccc(N(C)C)c2)n1)c1ccc(C(C)C)cc1Br [compound 215] | 501 to 2000 nM
11 | CCN(c1nc(C)nc(C)n1)c1ccc(C(C)C)cc1Br [compound 133] | 501 to 2000 nM
12 | C=CCOC1CCN(c2cc(C)nc(N(CC)c3ccc(C(C)C)cc3Br)n2)CC1 [compound 37] | < 500 nM
13 | CCN(c1nc(C)cc(COC)n1)c1ccc(C(C)C)cc1I [compound 207] | < 500 nM
14 | CCN(c1nc(C)cc(CN2CCN(c3ccccc3OC)CC2)n1)c1ccc(C(C)C)cc1Br [compound 275] | < 500 nM
15 | CCN(c1nc(C)cc(C)n1)c1ccc(C2CCCCC2)cc1Br [compound 22] | 501 to 2000 nM
16 | Cc1ccc(N(C)c2nc(C)cc(C)n2)c(Br)c1 [compound 1, N-(2-bromo-4-methylphenyl)-N-methyl-4,6-dimethyl-2-pymidinamine] | 501 to 2000 nM
17 | CCCCc1ccc(N(CC)c2nc(CC)cc(CC)n2)c(Br)c1 [compound 24] | 501 to 2000 nM
18 | CCN(c1nc(C)cc(OCCCSC)n1)c1ccc(C(C)C)cc1Br [compound 150] | < 500 nM
19 | CCN(c1nc(C)nc(Cl)n1)c1ccc(C(C)C)cc1Br [compound 250] | 501 to 2000 nM
20 | CCN(c1nc(C)cc(COc2ccc(-n3ccnc3)cc2)n1)c1ccc(C(C)C)cc1Br [compound 218] | < 500 nM
21 | CCN(c1nc(C)cc(NCCN(C)C)n1)c1ccc(C(C)C)cc1Br [compound 163] | 501 to 2000 nM
22 | CCN(c1nc(C)cc(CN2CCN(c3cnccn3)CC2)n1)c1ccc(C(C)C)cc1Br [compound 278] | < 500 nM
23 | CCN(c1cc(OC)nc(OC)n1)c1ccc(C(C)C)cc1Br [compound 130] | 501 to 2000 nM
24 | CCN(c1nc(C)cc(OCCN(C)C)n1)c1ccc(C(C)C)cc1Br [compound 161] | < 500 nM
25 | CCN(c1nc(C)cc(COc2ccccn2)n1)c1ccc(C(C)C)cc1Br [compound 210] | 501 to 2000 nM
26 | Cc1cc(C)nc(N(C)c2ccccc2C(F)(F)F)n1 [compound 54] | 2000 to 10000 nM
27 | CCN(c1nc(C)cc(COCC(=O)N2CCOCC2)n1)c1ccc(C(C)C)cc1Br [compound 229] | 2000 to 10000 nM
28 | CCN(c1nc(C)cc(C)n1)c1ccc(OC(C)C)cc1Br [compound 57, N-(2-Bromo-4-(isopropoxy)phenyl)-N-ethyl-4,6dimethyl-2-pymidinamine] | < 500 nM
29 | C=CCN(c1nc(C)cc(N2CCOCC2)n1)c1ccc(C(C)C)cc1Br [compound 17] | < 500 nM

Row | Compound | Ki
30 | CCN(c1nc(C)cc(N(C)CCO)n1)c1ccc(C(C)C)cc1Br [compound 50, N-(2-Bromo-4-(1-methylethyl)phenyl)-N-ethyl-4-methyl-6-(N-methyl-2-hydroxyethlamino)-2-pyrimidinamine] | < 500 nM
31 | CCN(c1nc(C)cc(SC)n1)c1ccc(C(C)C)cc1Br [compound 140, N-(2-bromo-4-(1-methylethyl)phenyl)-N-ethyl-4-methyl-6-(thiomethyl)-2-pyrimidinamine] | < 500 nM
32 | CCN(c1nccc(C)n1)c1ccc(C(C)C)cc1Br [compound 49, N-(2-Bromo-4-(1-methylethyl)phenyl)-N-ethyl-4-methyl-2-pymidinamine] | 2000 to 10000 nM
33 | Cc1cc(C)c2ccn(-c3ccc(C(C)C)cc3Br)c2n1 [Example 257] | < 500 nM
34 | Cc1cc(C)nc(N(C)c2ccc(C(C)(C)C)cc2Br)n1 [compound 11] | < 500 nM
35 | CCN(c1nc(C)cc(N2CCSC2)n1)c1ccc(C(C)C)cc1I [compound 171, N-(2-iodo-4-(1-methylethyl)phenyl)-N-ethyl-4-thiazolidino-6-methyl-2-pyrimidinamine] | < 500 nM
36 | CCN(c1nc(C)cc(CN2CCN(c3ccccn3)CC2)n1)c1ccc(C(C)C)cc1Br [compound 280] | < 500 nM
37 | CCOC(=O)C(C(=O)OCC)c1nc(C)nc(N(CC)c2ccc(C(C)C)cc2Br)n1 [compound 246] | < 500 nM
38 | Cc1cc(C)nc(N(C)c2ccc(C(C)C)cc2)n1 [compound 66] | 2000 to 10000 nM
39 | CCN(c1nc(C)cc(C(=O)NC)n1)c1ccc(C(C)C)cc1Br [compound 271] | < 500 nM
40 | CCN(c1nc(C)cc(COc2ncccn2)n1)c1ccc(C(C)C)cc1Br [compound 213] | < 500 nM
41 | CCOc1ccc(N(CC)c2nc(C)cc(C)n2)c(Br)c1 [compound 201] | < 500 nM
42 | CCc1ccc(N(CC)c2nc(C)cc(C)n2)c(SC)c1 [compound 182, N-(4-ethyl-2-methylthiophenyl)-N-ethyl-4,6-dimethyl-2-pyrimidinamine] | < 500 nM
43 | CCN(c1nc(C)cc(COCc2ccncc2)n1)c1ccc(C(C)C)cc1Br [compound 219] | < 500 nM
44 | Cc1cc(-c2ccccc2)c2ccn(-c3ccc(C(C)C)cc3Br)c2n1 [Example 261] | < 500 nM
45 | CCN(c1nc(C)cc(C(O)c2ccc(OC)cc2)n1)c1ccc(C(C)C)cc1Br (centres unmarked) [compound 292] | < 500 nM
46 | CCN(c1nc(C)nc(N2CCSCC2)n1)c1ccc(C(C)C)cc1I [compound 135] | < 500 nM
47 | CCN(c1nc(C)cc(S(C)(=O)=O)n1)c1ccc(C(C)C)cc1Br [compound 159, N-(2-bromo-4-(1-methylethyl)phenyl)-N-ethyl-4-methyl-6-(thiomethyl)-2-pyrimidinamine, dioxide] | < 500 nM
48 | CCN(c1nc(C)cc(C)n1)c1ccc(COC)cc1I [compound 172, N-(2-iodo-4-methoxymethylphenyl)-N-ethyl-4,6-dimethyl-2-pyrimidinamine] | < 500 nM
49 | CCN(c1nc(C)cc(N2CCSCC2)n1)c1ccc(C(C)C)cc1I [compound 73, N-ethyl-N-(2-iodo4-(1-methylethyl)phenyl)4-thiomorpholino-6-methyl-2-pyrimidinamine] | < 500 nM
50 | CCN(c1nc(C)cc(C=O)n1)c1ccc(C(C)C)cc1Br [compound 222, N-(2-Bromo-4-(1-methylethyl)phenyl)-N-ethyl-4-formyl-6-methyl-2-pyrimidinamine] | 501 to 2000 nM
